Among the test systems are PC-3 prostate; NCI-H460 lung; SK-MEL-2 melanoma; SR leukemia; NCI-H522 lung; NCI-H226 lung; CAKI-1 renal; SF-268 CNS; UACC-257 melanoma; SNB-75 CNS.
Holding throughout (assay): NCI-60 cell line screen, 48 h

Structures are written as SMILES.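 How tested: cells in 96-well plates exposed to compound for 48 hours at five concentrations. GI50: concentration for 50% inhibition of growth. Definition used: TGI = concentration required for complete inhibition of growth.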 Bounds are passed on as bounds.

With `FC(F)(F)c1ccc(N=NN2CCCC2)cc1`, the TGI in the assay on PC-3 prostate, in the assay with NCI-H460 lung, with SK-MEL-2 melanoma, in the assay with SR leukemia, with NCI-H522 lung and in the assay on NCI-H226 lung was more than 100 µM in each case. In addition, the TGI with CAKI-1 renal, in the assay with SF-268 CNS and in the assay on UACC-257 melanoma was more than 100 µM in each case.
`CC(=O)Oc1ccc(C2SCc3nc4ccccc4n32)cc1` (stereo unspecified): the TGI in the assay with PC-3 prostate is more than 100 µM; in the assay on SNB-75 CNS, 77.2 µM; with NCI-H460 lung it was more than 100 µM; in the assay with SK-MEL-2 melanoma, 80.2 µM; in the assay with SR leukemia, more than 73 µM; in the assay with NCI-H522 lung, 69.2 µM. Further, the TGI in the assay on CAKI-1 renal was more than 93.2 µM; in the assay on SF-268 CNS, 70.8 µM; with UACC-257 melanoma, more than 100 µM.
`N#C[C@H](c1nc2ccccc2[nH]1)c1nc2ccccc2nc1Cl`: the TGI in the assay with PC-3 prostate is more than 52.1 µM; with SNB-75 CNS, 41.1 µM; in the assay on NCI-H460 lung it was more than 53.8 µM; in the assay on SK-MEL-2 melanoma, more than 59.1 µM; with SR leukemia it was 13.8 µM; in the assay on NCI-H522 lung, 16.2 µM. Also, the TGI was 64.7 µM in the assay on NCI-H226 lung, 15.3 µM in the assay on CAKI-1 renal and more than 62.5 µM in the assay with UACC-257 melanoma.
As to `COc1cc(CNC(=O)CCCCCCCCCCSC#N)ccc1O`, the TGI in the assay on PC-3 prostate came out at 27.5 µM; with SNB-75 CNS it was 29.3 µM; in the assay on NCI-H460 lung it was 38.2 µM; in the assay on SK-MEL-2 melanoma it was 28.8 µM; with SR leukemia it was 91.5 µM; in the assay with NCI-H522 lung, 27.8 µM. In addition, the TGI with NCI-H226 lung amounted to 37.8 µM; in the assay with CAKI-1 renal it was 36.8 µM; with UACC-257 melanoma, 41.1 µM.
In the case of `COc1ccc(-c2nc3ccccc3c(=O)[nH]2)cc1OC`, the TGI in the assay on PC-3 prostate was more than 100 µM; in the assay with SNB-75 CNS it was 55.6 µM; in the assay with NCI-H460 lung it was more than 100 µM; with SK-MEL-2 melanoma, more than 100 µM; in the assay on SR leukemia, more than 100 µM; in the assay with NCI-H226 lung, 55.8 µM. Besides, the TGI is more than 100 µM in the assay with CAKI-1 renal, 60 µM with SF-268 CNS and more than 100 µM in the assay with UACC-257 melanoma.
For the compound `O=C(O)COc1cccc2ccccc(=O)c12`, the TGI in the assay on PC-3 prostate, in the assay with NCI-H460 lung, in the assay on SK-MEL-2 melanoma, in the assay on SR leukemia, in the assay with NCI-H522 lung and in the assay with NCI-H226 lung was more than 100 µM throughout. Also, the TGI in the assay with CAKI-1 renal, in the assay on SF-268 CNS and in the assay with UACC-257 melanoma was more than 100 µM each time.
Turning to `CCN(CC)C(=O)N1CN(c2ccccc2)C2(CCN(CCCC3(c4ccc(F)cc4)OCCO3)CC2)C1=O`, the TGI in the assay on PC-3 prostate is 34.9 µM; in the assay with SNB-75 CNS, 45.3 µM; in the assay with SK-MEL-2 melanoma it was 33 µM; in the assay on SR leukemia it was 47.5 µM; in the assay with NCI-H522 lung it was 30.2 µM; in the assay on NCI-H226 lung it was 53.5 µM. Besides, the values for the TGI with CAKI-1 renal, with SF-268 CNS and in the assay with UACC-257 melanoma were more than 100 µM, 45.5 µM and 26.3 µM, respectively.
In the case of `COc1cc(/C=C2\CCCC3=C2N=C2SC=NN2C3c2cc(OC)c(OC)c(OC)c2)cc(OC)c1OC` (stereo unspecified), the GI50 in the assay on PC-3 prostate is 3.1 µM; in the assay with SNB-75 CNS, 7.52 µM; in the assay with SK-MEL-2 melanoma, 3.46 µM; in the assay on SR leukemia, 2.55 µM; in the assay with NCI-H522 lung it was 2.72 µM; in the assay with CAKI-1 renal, 3.43 µM. Besides, the values for the GI50 in the assay on SF-268 CNS and in the assay with UACC-257 melanoma were 3.48 µM and 2.64 µM, respectively. The TGI in the assay on PC-3 prostate is more than 100 µM; in the assay with SNB-75 CNS, more than 100 µM; with SK-MEL-2 melanoma, more than 100 µM; with SR leukemia, 9.47 µM; with NCI-H522 lung it was 8.51 µM; in the assay on CAKI-1 renal, more than 100 µM. In addition, the figures for the TGI in the assay with SF-268 CNS and in the assay on UACC-257 melanoma were more than 100 µM and 26.1 µM, respectively.
On to `COc1ccc(OC)c2c1-c1nnnn1CCC2(C)C`, for which the TGI in the assay with PC-3 prostate, in the assay on SNB-75 CNS, in the assay with NCI-H460 lung, with SK-MEL-2 melanoma, in the assay on SR leukemia and with NCI-H522 lung was more than 100 µM each time. In addition, the TGI in the assay with NCI-H226 lung, in the assay on SF-268 CNS and in the assay on UACC-257 melanoma was more than 100 µM each time.
`[B]C(=O)NC(CC(C)C)C(=O)NC1c2ccsc2C(=O)C1O` (stereo unspecified) (tested in a mixture with another compound): the TGI in the assay with PC-3 prostate, with SNB-75 CNS, with NCI-H460 lung, with SK-MEL-2 melanoma, with SR leukemia and with NCI-H522 lung was more than 100 µM each time. Further, the TGI with NCI-H226 lung, with SF-268 CNS and in the assay on UACC-257 melanoma was more than 100 µM each time.
Turning to `COc1ccc(/C=C2\NC(=S)N(CN3CCOCC3)C2=O)cc1`, the TGI in the assay with PC-3 prostate, in the assay on SNB-75 CNS, in the assay on SK-MEL-2 melanoma, with SR leukemia, in the assay with NCI-H226 lung and in the assay with SF-268 CNS was more than 100 µM in each case. Also, in the assay on UACC-257 melanoma, the TGI was more than 100 µM.
Regarding `CC(C)(C)OC(=O)/C=C/[C@@H](CCC(=O)/C=C/[C@H](/C=C\CCCC(=O)O)NC1(c2ccccc2)c2ccccc2-c2ccccc21)O[Si](C)(C)C(C)(C)C`, the TGI in the assay on PC-3 prostate is 36.2 µM; with NCI-H460 lung, 34.7 µM; in the assay on SK-MEL-2 melanoma it was 30.1 µM; in the assay on SR leukemia, more than 100 µM; with NCI-H522 lung it was 34.6 µM; in the assay with NCI-H226 lung it was 40.3 µM. Further, the TGI in the assay on CAKI-1 renal was 67.8 µM; in the assay with SF-268 CNS it was 35.2 µM; in the assay on UACC-257 melanoma, 34.2 µM.
On to `FC1(F)SC2CCCCCCCCCCC2C1(F)F` (stereo unspecified), for which the TGI with PC-3 prostate was more than 100 µM; in the assay with SNB-75 CNS it was more than 100 µM; with SK-MEL-2 melanoma, 39.3 µM; with SR leukemia, more than 100 µM; with NCI-H522 lung, 52.7 µM; in the assay with NCI-H226 lung, more than 100 µM. Further, the TGI with CAKI-1 renal is more than 100 µM; with SF-268 CNS, more than 100 µM; in the assay with UACC-257 melanoma, 69.8 µM.
For the compound `CC(C)N=C(NC#N)NS(=O)(=O)c1cnccc1NC1CCCCCCC1`, the TGI in the assay with PC-3 prostate, in the assay with SNB-75 CNS, in the assay on SK-MEL-2 melanoma, in the assay with SR leukemia, in the assay with NCI-H522 lung and in the assay on NCI-H226 lung was more than 100 µM each time. The TGI in the assay with CAKI-1 renal, in the assay on SF-268 CNS and in the assay with UACC-257 melanoma was more than 100 µM in each case.

For the origin of these results see PubChem BioAssay (NCI).
